According to patent US20110230659A1, “CYCLOBUTYL PURINE DERIVATIVE, ANGIOGENESIS PROMOTING AGENT, LUMEN FORMATION PROMOTING AGENT, NEUROCYTE GROWTH PROMOTING AGENT, AND DRUG” (NATIONAL UNIVERSITY CORPORATION KAGAWA UNIVERSITY, priority 2008, published 2011):

How the values were obtained:
[1] = test system: cornea of Japanese white rabbit; assay: Angiogenesis test, rabbit cornea assay; assay type: in vivo; conditions: 16 mmol/l in 30 μl of physiological saline injected to cornea, observed after 7 days
Protocol: In the present example, the effect of 2-Cl—C.OXT-A of Example 1 on angiogenesis was examined by a rabbit cornea assay.
A sample was prepared by adding 2-Cl—C.OXT-A to 30 μl of physiological saline so that its concentration became 16 mmol/l. The sample was injected to a cornea of Japanese white rabbit (male, 2.8 kg) under sevoflurane anesthesia. The cornea was observed after a lapse of 7 days.

[2] = test system: human umbilical vein endothelial cells (HUVEC) and normal human dermal fibroblasts; assay: Measurement of lumen formation (angiogenesis kit, CD31 immunostaining, lumen area); assay type: cell-based
Protocol: The measurement of lumen formation was carried out in the following manner using commercially available angiogenesis kits (Kurabo), each including human umbilical vein endothelial cells (HUVEC) and normal human dermal fibroblasts. First, sample solutions were prepared by dissolving 2-Cl—C.OXT-A in physiological saline so as to achieve predetermined concentrations (1, 10, 100, 500 μmol/l, 1, 5, 10, 50 mmol/l). Then, the sample solutions containing 2-Cl—C.OXT-A at the predetermined concentrations respectively were added to media provided in the kits so that their concentrations became 10 v/v %. Thus, lumen formation media were prepared. The final concentrations of 2-Cl—C.OXT-A in the lumen formation media were 0.1, 1, 10, 50, 100, 500 μmol/l, 1 and 5 mmol/1.
Using each of the lumen formation media, the human umbilical vein endothelial cells (HUVEC) and the normal human dermal fibroblasts were cultured for 10 days. After the culture, the human umbilical vein endothelial cells (HUVEC) were immunostained using a lumen staining kit (for CD31 staining, Kurabo). Then, using NIH Image (image processing and analysis software), the area of a portion stained by the immunostaining (lumen area) was measured. As a control, a medium provided in the kit was used instead of the lumen formation medium to carry out the culture, and the cells were immunostained and the lumen area was measured in the same manner as in the above. Then, using the following equation (II), the relative value of lumen area in the culture using each of the lumen formation media containing 2-Cl—C.OXT-A at the predetermined concentrations was calculated.
In the present example, the relative value of lumen area was calculated in the same manner as in the lumen formation measurement in Example 1, except that the measurement was carried out with respect to four groups respectively using media Nos. 5 to 8 prepared by adding 2-Cl—C.OXT-A and PD98059 to media provided in the above-described angiogenesis kits (Kurabo) so that their concentrations became as shown in Table 2 below. In the group using the medium No. 7, the culture was conducted using the medium No. 7 from the first to third days of the culture and the medium No. 5 from the fourth to tenth days of the culture, and in the group using the medium No. 8, the culture was conducted using the medium No. 8 from the first to third days of the culture and the medium No. 6 from the fourth to tenth days of the culture.
In the present example, the relative value of lumen area was calculated in the same manner as in the lumen formation measurement in Example 1, except that the measurement was carried out with respect to six groups respectively using media Nos. 15 to 20 prepared by adding 2-Cl—C.OXT-A, VEGF (positive control), and SU5416 to media provided in the above-described angiogenesis kit (Kurabo) so that their concentrations became as shown in Table 4 below. In the group using the medium No. 16, the culture was conducted using the medium No. 16 from the first to third days of the culture and the medium No. 15 from the fourth to tenth days of the culture; in the group using the medium No. 18, the culture was conducted using the medium No. 18 from the first to third days of the culture and the medium No. 17 from the fourth to tenth days of the culture; and in the group using the medium No. 20, the culture was conducted using the medium No. 20 from the first to third days of the culture and the medium No. 19 from the fourth to tenth days of the culture.

[3] = test system: rat adrenal medulla-derived cell line PC12; assay: Differentiation of PC12 cells, AChE activity (Ellman's method); assay type: cell-based; conditions: 2-Cl—C.OXT-A 50 μmol/l and 100 μmol/l, sixth day of culture
Protocol: (§1) Three samples were prepared by adding additives shown in Table 5 below to PBS so as to achieve predetermined concentrations. Also, an evaluation medium was prepared by adding each sample or PBS to DMEM (no serum) so that its concentration became 10 v/v %. Furthermore, as a control medium, a medium containing only DMEM (no serum) was prepared. The PC12 cells were suspended at a density of 5×10^4 cells/ml in DMEM to which 5 v/v % cow serum and 10 v/v % horse serum had been added. Thus, a cell suspension was prepared. 3 ml of the cell suspension was inoculated into a 6 petri dish. […] On the sixth day of the culture, the cells were photographed under a microscope, and the AChE activity was measured according to the Ellman's method (Ellman, G. L., et al., Biochem. Pharmacol., 7, pp. 88-95, (1961)). Specifically, the AChE activity was measured in the following manner. […] The sample solution, 75 μl of 10 mmol/l DTNB, and 3.0 ml of 0.1 mol/l phosphate buffer solution (pH 8.0) were added to a […] for absorbance measurement, and finally, 50 μl of 100 mmol/l acetylthiocholine was added to cause a reaction. The absorbance of the reaction solution at 412 nm was measured for 5 minutes from immediately after the addition of the ace tylthiocholine. From the thus-measured absorbances, the amount of increase in absorbance (C) per minute was determined. […]

[4] = test system: rat adrenal medulla-derived cell line PC12; assay: Differentiation of PC12 cells, morphological change (micrographs); assay type: cell-based; conditions: 2-Cl—C.OXT-A at 50 μmol/l and 100 μmol/l; sixth day of culture
Protocol: In the present example, using rat adrenal medulla-derived cell line PC12, which is neurocyte model cells, obtained from the RIKEN BioResource Center, the effect of 2-Cl—C.OXT-A of Example 1 on the differentiation of PC12 cells was examined.
as §1, with “prepared.” for “prepared. The PC12 cells were suspended at a density of 5×10^4 cells/ml in DMEM to which 5 v/v % cow serum and 10 v/v % horse serum had been added. Thus, a cell suspension was prepared. 3 ml of the cell suspension was inoculated into a 6 petri dish.”

Nc1nc(Cl)nc2c1ncn2C1CC(CO)C1CO (stereo not drawn) [2-Cl—C.OXT-A, 6-amino-2-chloro-9-[trans-trans-2,3-bis(hydroxymethyl)cyclobutyl]purine]
angiogenesis in the cornea [1]: considerable angiogenesis | relative value of lumen area compared with control ([2]; Example 7, medium No. 6: only 2-Cl—C.OXT-A 10 μmol/l): about 3 fold | lumen area ([2]; Example 9, medium No. 17: 2-Cl—C.OXT-A 10 μmol/l): increased markedly | relative value of lumen area ([2]; final concentration 100 nmol/l to 1 mmol/l, versus control): larger than that of the control | stained area (lumen formation, immunostaining photographs) ([2]; final concentration 10 μmol/l to 1 mmol/l, 10 days, versus control): larger than that in the control | relative value of lumen area ([2]; final concentration 100 μmol/l, highest activity): 3.8 | lumen formation promoting-activity compared with VEGF (relative value of lumen area) ([2]; final concentration 10 to 500 μmol/l, VEGF 10 ng/ml): higher than that in Comparative Example 7 | lumen formation promoting-activity compared with VEGF (photographs) ([2]; final concentrations 10 and 100 μmol/l, VEGF 10 ng/ml): higher than that in Comparative Example 7 | AChE enzyme activity (relative value) [3]: increased | morphological change of PC12 cells (axon extension) [4]: cells from which linear axons extend were observed
